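96-well plates; 48 h exposure; 5 concentrations. Endpoints by linear interpolation between flanking doses. Not reached: highest tested concentration assigned. GI50 = concentration required for 50% inhibition of growth.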 Active and inactive are the calls of the source. Cut-off read from the data, not from the text of the source: active = GI50 up to about 1.1 µM and inactive = higher.
Legend:
Experiment in all cases: growth of human tumour cells (NCI), 48 h
HCT-15 = tested on: HCT-15
OVCAR-8 = tested on: OVCAR-8
MOLT-4 = tested on: MOLT-4
SF-268 = tested on: SF-268
LOX IMVI = tested on: LOX IMVI
SK-OV-3 = tested on: SK-OV-3
SK-MEL-2 = tested on: SK-MEL-2
RXF 393 = tested on: RXF 393
786-0 = tested on: 786-0
HT-29 = tested on: HT-29
HCC 2998 = tested on: HCC 2998
HCT-116 = tested on: HCT-116
KM12 = tested on: KM12
SF-295 = tested on: SF-295
SK-MEL-5 = tested on: SK-MEL-5
DU-145 = tested on: DU-145
MDA-MB-435 = tested on: MDA-MB-435
NCI/ADR-RES = tested on: NCI/ADR-RES
BT-549 = tested on: BT-549

COc1ccc([C@H]2[C@@H]3CCc4ccccc4C3=NN2C(N)=S)cc1OC
GI50 (HCT-15): 40.9 µM | GI50 (OVCAR-8): 74.3 µM (inactive) | GI50 (MOLT-4): 31.1 µM (inactive) | GI50 (SF-268): 85.9 µM (inactive) | GI50 (LOX IMVI): 32.6 µM (inactive) | GI50 (SK-OV-3): > 100 µM (inactive) | GI50 (SK-MEL-2): 50 µM (inactive) | GI50 (RXF 393): 39.7 µM (inactive) | GI50 (786-0): 54.2 µM (inactive) | GI50 (HT-29): 40 µM (inactive) | GI50 (HCC 2998): > 100 µM (inactive) | GI50 (HCT-116): 47.9 µM (inactive) | GI50 (KM12): 47.9 µM (inactive)

CC/C(CC(=O)CCC(=O)Nc1c(C)cccc1C)=N\NC(=O)NN
GI50 (HCT-15): > 100 µM | GI50 (OVCAR-8): > 100 µM (inactive) | GI50 (MOLT-4): > 100 µM (inactive) | GI50 (SF-268): > 100 µM (inactive) | GI50 (SF-295): > 100 µM (inactive) | GI50 (SK-MEL-2): > 100 µM (inactive) | GI50 (RXF 393): > 100 µM (inactive) | GI50 (786-0): > 100 µM (inactive) | GI50 (SK-MEL-5): > 100 µM (inactive) | GI50 (HT-29): > 100 µM (inactive) | GI50 (HCC 2998): > 100 µM (inactive) | GI50 (HCT-116): > 100 µM (inactive) | GI50 (KM12): > 100 µM (inactive)

S=C1Cc2c([nH]c3ccccc23)-c2ccccc2N1
GI50 (DU-145): 41.3 µM (inactive) | GI50 (OVCAR-8): 38.3 µM (inactive) | GI50 (MOLT-4): 23.6 µM (inactive) | GI50 (SF-268): 34.4 µM (inactive) | GI50 (LOX IMVI): 75.2 µM (inactive) | GI50 (SF-295): 98.6 µM (inactive) | GI50 (SK-OV-3): 24.2 µM (inactive) | GI50 (RXF 393): 18.3 µM (inactive) | GI50 (MDA-MB-435): > 100 µM (inactive) | GI50 (786-0): 31.3 µM (inactive) | GI50 (SK-MEL-5): 42 µM (inactive) | GI50 (HT-29): > 100 µM (inactive) | GI50 (HCT-116): 25.1 µM (inactive) | GI50 (NCI/ADR-RES): 50 µM (inactive) | GI50 (KM12): > 100 µM (inactive)

CCOC(=O)/C(C#N)=N\Nc1ccc(-n2c(C)nc3ccccc3c2=O)cc1
GI50 (HCT-15): 62.1 µM | GI50 (DU-145): 77.6 µM (inactive) | GI50 (OVCAR-8): 29.6 µM (inactive) | GI50 (MOLT-4): 23.7 µM (inactive) | GI50 (SF-268): > 100 µM (inactive) | GI50 (LOX IMVI): 66.2 µM (inactive) | GI50 (SF-295): 56.9 µM (inactive) | GI50 (SK-OV-3): > 100 µM (inactive) | GI50 (SK-MEL-2): > 100 µM (inactive) | GI50 (MDA-MB-435): 47.6 µM (inactive) | GI50 (786-0): > 100 µM (inactive) | GI50 (SK-MEL-5): 16.5 µM (inactive) | GI50 (BT-549): 73.6 µM (inactive) | GI50 (HT-29): > 100 µM (inactive) | GI50 (HCT-116): 59.6 µM (inactive) | GI50 (NCI/ADR-RES): 18.9 µM (inactive) | GI50 (KM12): 30.2 µM (inactive)

C[C@@]1(Br)C[C@@](C)(Cl)[C@@H](Br)CC1/C=C/Cl (some centres not stated)
GI50 (HCT-15): 27 µM | GI50 (OVCAR-8): 16 µM (inactive) | GI50 (MOLT-4): 13.3 µM (inactive) | GI50 (SF-268): 11.1 µM (inactive) | GI50 (LOX IMVI): 17.6 µM (inactive) | GI50 (SF-295): 14.4 µM (inactive) | GI50 (SK-OV-3): 17.5 µM (inactive) | GI50 (SK-MEL-2): 16.7 µM (inactive) | GI50 (MDA-MB-435): 16.9 µM (inactive) | GI50 (786-0): 16.6 µM (inactive) | GI50 (SK-MEL-5): 13.6 µM (inactive) | GI50 (BT-549): 19.1 µM (inactive) | GI50 (HT-29): 16.1 µM (inactive) | GI50 (HCC 2998): 31.6 µM (inactive) | GI50 (HCT-116): 11 µM (inactive) | GI50 (NCI/ADR-RES): 13.1 µM (inactive) | GI50 (KM12): 16.1 µM (inactive)

CS/C(c1ccccc1)=[N+](\[O-])Cc1ccccc1
GI50 (HCT-15): 16.7 µM | GI50 (OVCAR-8): > 100 µM (inactive) | GI50 (MOLT-4): > 100 µM (inactive) | GI50 (SF-268): > 100 µM (inactive) | GI50 (LOX IMVI): 16.4 µM (inactive) | GI50 (SF-295): > 100 µM (inactive) | GI50 (SK-OV-3): > 100 µM (inactive) | GI50 (SK-MEL-2): > 100 µM (inactive) | GI50 (RXF 393): > 100 µM (inactive) | GI50 (786-0): > 100 µM (inactive) | GI50 (SK-MEL-5): > 100 µM (inactive) | GI50 (HT-29): 50.7 µM (inactive) | GI50 (HCC 2998): > 100 µM (inactive) | GI50 (HCT-116): > 100 µM (inactive) | GI50 (KM12): > 100 µM (inactive)

CSC1=N/C(=C\c2cccs2)C(=O)N1CN1CCCCC1
GI50 (HCT-15): 37.2 µM | GI50 (DU-145): > 100 µM (inactive) | GI50 (OVCAR-8): 51.3 µM (inactive) | GI50 (MOLT-4): 64.9 µM (inactive) | GI50 (SF-268): 37.8 µM (inactive) | GI50 (LOX IMVI): 23.1 µM (inactive) | GI50 (SF-295): > 100 µM (inactive) | GI50 (SK-OV-3): > 100 µM (inactive) | GI50 (SK-MEL-2): > 100 µM (inactive) | GI50 (MDA-MB-435): > 100 µM (inactive) | GI50 (786-0): 65.6 µM (inactive) | GI50 (SK-MEL-5): 66.8 µM (inactive) | GI50 (HT-29): 25.1 µM (inactive) | GI50 (HCT-116): 52.5 µM (inactive) | GI50 (NCI/ADR-RES): 50.9 µM (inactive) | GI50 (KM12): 50.2 µM (inactive)

C=C1CC[C@@H](C)[C@](C)(CCc2ccoc2)C/C=C\C=C/1C(=O)O
GI50 (HCT-15): 35.2 µM | GI50 (OVCAR-8): 21 µM (inactive) | GI50 (MOLT-4): 27 µM (inactive) | GI50 (LOX IMVI): 21.1 µM (inactive) | GI50 (SF-295): 38.8 µM (inactive) | GI50 (SK-OV-3): 69.2 µM (inactive) | GI50 (SK-MEL-2): 19.1 µM (inactive) | GI50 (RXF 393): 29.9 µM (inactive) | GI50 (MDA-MB-435): 37.6 µM (inactive) | GI50 (786-0): 46.6 µM (inactive) | GI50 (SK-MEL-5): 39.6 µM (inactive) | GI50 (BT-549): 19.5 µM (inactive) | GI50 (HT-29): 36.7 µM (inactive) | GI50 (HCT-116): 21.8 µM (inactive) | GI50 (NCI/ADR-RES): 25.7 µM (inactive) | GI50 (KM12): 33.1 µM (inactive)

NC1=NC(=O)C2(NN1)c1ccccc1-c1ccccc12
GI50 (HCT-15): > 10 µM | GI50 (OVCAR-8): > 10 µM (inactive) | GI50 (MOLT-4): > 10 µM (inactive) | GI50 (SF-268): > 10 µM (inactive) | GI50 (LOX IMVI): > 10 µM (inactive) | GI50 (SF-295): > 10 µM (inactive) | GI50 (SK-OV-3): > 10 µM (inactive) | GI50 (SK-MEL-2): > 10 µM (inactive) | GI50 (RXF 393): > 10 µM (inactive) | GI50 (786-0): > 10 µM (inactive) | GI50 (SK-MEL-5): > 10 µM (inactive) | GI50 (HCC 2998): > 10 µM (inactive) | GI50 (HCT-116): > 10 µM (inactive) | GI50 (NCI/ADR-RES): 7.41 µM (inactive) | GI50 (KM12): > 10 µM (inactive)

— ChEMBL document CHEMBL1201862, “PubChem BioAssay data set” (2004)
